Source: US9301922B1, “Stable high strength pharmaceutical composition of levoleucovorin” (APROFOL AG, priority 2013, dated 2016)

Test: Solubility in water (observation)
Type: physicochemical
Experimental: 4.0 g of levoleucovorin calcium (6.7 mmol) are suspended in 100 ml water. The slurry is heated up to about 40° C. to obtain a clear solution. 1.0 g of zinc acetate dihydrate (4.6 mmol) in 10 ml water is slowly added. A precipitate is formed immediately. After one day the precipitate is separated from the mother liquor.

- Solubility in water: almost insoluble in water
Compound: Nc1nc2c(c(=O)[nH]1)N(C=O)[C@@H](CNc1ccc(C(=O)N[C@@H](CCC(=O)[O-])C(=O)[O-])cc1)CN2.[Zn+2] [levoleucovorin zinc]
